Source: BindingDB's records for doi:10.1111/cbdd.12681 (Peking University, 2016)

Molecular target: T1, Dihydrofolate reductase (Homo sapiens, UniProt P00374)
T1 sequence (P00374 whole entry): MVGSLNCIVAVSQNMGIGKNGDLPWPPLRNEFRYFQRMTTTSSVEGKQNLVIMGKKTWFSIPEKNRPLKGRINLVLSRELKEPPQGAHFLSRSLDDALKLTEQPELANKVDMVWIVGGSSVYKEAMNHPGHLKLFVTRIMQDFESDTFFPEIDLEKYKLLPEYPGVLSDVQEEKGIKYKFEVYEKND
Assay: DHFR Inhibition Assay
Conditions: pH 7.5
Protocol: The recombinant human (rh) DHFR was purchased from Sigma-Aldrich (Shanghai, China). All rhDHFR enzymes were assayed spectrophotometrically in a solution containing 0.1 mM dihydrofolate, 0.3 mM NADPH and 100 mM KCl at pH 7.5 and 32 °C. The reaction was initiated with an amount of enzyme yielding a change in O.D. at 340 nm measured by microplate spectrophotometer.

Row | IC50 [nM] | Structure (SMILES)
1 | 10100 | Nc1nc(O)c2c(n1)CCC(CCc1ccc(C(=O)N[C@@H](CCC(=O)O)C(=O)O)cc1)N2C=O (stereo partly drawn) [4-[2-(2-Amino-4-hydroxy-5-formyl-5,6,7,8-tetrahydropyrido[3,2-d]pyrimidin-6-yl)ethyl] benzoyl-L-glutamic acid (22a)]
2 | 590 | Nc1nc(N)c2c(n1)CCC(CNc1ccc(C(=O)N[C@@H](CCC(=O)O)C(=O)O)cc1)N2C=O (stereo partly drawn) [N-[4-[2-(2,4-Diamino-5-formyl-5,6,7,8-tetrahydropyrido[3,2-d]pyrimidin-6-yl)methyl]amino]benzoyl]-L-glutamic acid (24a)]
3 | 40 | Nc1nc(N)c2c(n1)CCC(CCc1ccc(C(=O)N[C@@H](CCC(=O)O)C(=O)O)cc1)N2 (stereo partly drawn) [4-[2-(2,4-Diamino-5,6,7,8-tetrahydropyrido[3,2-d]pyrimidin-6-yl)ethyl]benzoyl-L-glutamic acid (17a)]
4 | 706 | C=CCN1c2c(N)nc(N)nc2CCC1CCc1ccc(C(=O)N[C@@H](CCC(=O)O)C(=O)O)cc1 (stereo partly drawn) [4-[2-(2,4-Diamino-5-allyl-5,6,7,8-tetrahydropyrido[3,2-d]pyrimidin-6-yl)ethyl]benzoyl-L-glutamic acid (20a)]
5 | 298 | C=CCN1c2c(O)nc(N)nc2CCC1CCc1ccc(C(=O)N[C@@H](CCC(=O)O)C(=O)O)cc1 (stereo partly drawn) [4-[2-(2-Amino-4-hydroxy-5-allyl-5,6,7,8-tetrahydropyrido[3,2-d]pyrimidin-6-yl)ethyl]benzoyl-L-glutamic acid (23a)]
6 | 59 | Nc1nc(O)c2c(n1)CCC(CCc1ccc(C(=O)N[C@@H](CCC(=O)O)C(=O)O)cc1)N2 (stereo partly drawn) [4-[2-(2-Diamino-4-hydroxy-5,6,7,8-tetrahydropyrido[3,2-d]pyrimidin-6-yl)ethyl]benzoyl-L-glutamic acid (18a)]
7 | 680 | Nc1nc(N)c2c(n1)CCC(CCc1ccc(C(=O)N[C@@H](CCC(=O)O)C(=O)O)cc1)N2CC(Br)CBr (stereo partly drawn) [4-[2-[2,4-Diamino-5-(2,3-dibromopropyl)-5,6,7,8-tetrahydropyrido[3,2-d]pyrimidin-6-yl]ethyl]benzoyl-L-glutamic acid (21a)]
8 | 41 | Nc1nc(N)c2c(n1)CCC(CCc1ccc(C(=O)N[C@@H](CCC(=O)O)C(=O)O)cc1)N2C=O (stereo partly drawn) [4-[2-(2,4-Diamino-5-formyl-5,6,7,8-tetrahydropyrido[3,2-d]pyrimidin-6-yl)ethyl]benzoyl-L-glutamic acid (19a)]
